In PubChem BioAssay (NCI):
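In this assay, cells in 96-well plates receive the compound at five concentrations for 48 hours. Endpoints are linearly interpolated between the surrounding concentrations. GI50: concentration for 50% inhibition of growth. At the TGI there is no net growth.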

Assays:
Assay in all cases: inhibition of tumour cell growth, NCI panel, 48 h
SK-OV-3 ovarian = system: SK-OV-3 ovarian
BT-549 breast = system: BT-549 breast
DU-145 prostate = system: DU-145 prostate
OVCAR-3 ovarian = system: OVCAR-3 ovarian
SNB-19 CNS = system: SNB-19 CNS
U251 CNS = system: U251 CNS
MDA-MB-231 breast = system: MDA-MB-231 breast
RPMI-8226 leukemia = system: RPMI-8226 leukemia
KM12 colon = system: KM12 colon
SK-MEL-5 melanoma = system: SK-MEL-5 melanoma
UACC-257 melanoma = system: UACC-257 melanoma
SK-MEL-28 melanoma = system: SK-MEL-28 melanoma
HOP-62 NSCLC = system: HOP-62 NSCLC
LOX IMVI melanoma = system: LOX IMVI melanoma
T-47D breast = system: T-47D breast
UACC-62 melanoma = system: UACC-62 melanoma
CCRF-CEM leukemia = system: CCRF-CEM leukemia
ACHN renal = system: ACHN renal
SF-539 CNS = system: SF-539 CNS
NCI-H226 lung = system: NCI-H226 lung
SN12C renal = system: SN12C renal
CAKI-1 renal = system: CAKI-1 renal
HCC-2998 colon = system: HCC-2998 colon
NCI-H460 lung = system: NCI-H460 lung
SW-620 colon = system: SW-620 colon
IGROV1 ovarian = system: IGROV1 ovarian
NCI-H522 lung = system: NCI-H522 lung
MCF7 breast = system: MCF7 breast
MOLT-4 leukemia = system: MOLT-4 leukemia
EKVX NSCLC = system: EKVX NSCLC
HT29 colon = system: HT29 colon
HCT-116 colon = system: HCT-116 colon
NCI/ADR-RES ovarian = system: NCI/ADR-RES ovarian
HS 578T breast = system: HS 578T breast
MDA-MB-435 = system: MDA-MB-435
OVCAR-8 ovarian = system: OVCAR-8 ovarian
OVCAR-5 ovarian = system: OVCAR-5 ovarian
SF-295 CNS = system: SF-295 CNS
A549 NSCLC = system: A549 NSCLC
M14 melanoma = system: M14 melanoma
RXF 393 renal = system: RXF 393 renal
SK-MEL-2 melanoma = system: SK-MEL-2 melanoma
UO-31 renal = system: UO-31 renal
HCT-15 colon = system: HCT-15 colon
HOP-92 NSCLC = system: HOP-92 NSCLC
COLO 205 colon = system: COLO 205 colon
TK-10 renal = system: TK-10 renal
K-562 leukemia = system: K-562 leukemia
NCI-H23 lung = system: NCI-H23 lung
OVCAR-4 ovarian = system: OVCAR-4 ovarian
PC-3 prostate = system: PC-3 prostate
SNB-75 CNS = system: SNB-75 CNS
SF-268 CNS = system: SF-268 CNS
786-0 renal = system: 786-0 renal

Which GI50 (SK-OV-3 ovarian) does the source give for O=C(Cc1csc2nc(-c3ccc(Br)cc3)cn12)N/N=C/c1cc(Br)ccc1O here?
The GI50 was > 100 µM.

What about the TGI (SK-OV-3 ovarian) of the same molecule?
Its TGI is > 100 µM.

And the GI50 (BT-549 breast)?
The GI50 was 27.7 µM.

And the TGI (BT-549 breast)?
Its TGI is > 100 µM.

And the GI50 (DU-145 prostate)?
Its GI50 is 19.5 µM.

What about the TGI (DU-145 prostate) of the same molecule?
The TGI was > 100 µM.

What about the GI50 (OVCAR-3 ovarian) of the same molecule?
Its GI50 is 45.3 µM.

And the TGI (OVCAR-3 ovarian)?
Its TGI is > 100 µM.

What about the GI50 (SNB-19 CNS) of the same molecule?
The GI50 was 26.1 µM.

And the TGI (SNB-19 CNS)?
Its TGI is > 100 µM.

What about the GI50 (U251 CNS) of the same molecule?
Its GI50 is 11.3 µM.

And the TGI (U251 CNS)?
Its TGI is > 100 µM.

And the GI50 (MDA-MB-231 breast)?
Its GI50 is 11.8 µM.

And the TGI (MDA-MB-231 breast)?
Its TGI is 66.8 µM.

What about the GI50 (RPMI-8226 leukemia) of the same molecule?
Its GI50 is 5.04 µM.

And the TGI (RPMI-8226 leukemia)?
The TGI was > 100 µM.

And the GI50 (KM12 colon)?
The GI50 was 29.6 µM.

And the TGI (KM12 colon)?
Its TGI is > 100 µM.

What about the GI50 (SK-MEL-5 melanoma) of the same molecule?
Its GI50 is 11.4 µM.

What about the TGI (SK-MEL-5 melanoma) of the same molecule?
The TGI was 45.4 µM.

And the GI50 (UACC-257 melanoma)?
Its GI50 is 20.1 µM.

And the TGI (UACC-257 melanoma)?
The TGI was 63.2 µM.

What about the GI50 (SK-MEL-28 melanoma) of the same molecule?
Its GI50 is 48.8 µM.

And the TGI (SK-MEL-28 melanoma)?
The TGI was > 100 µM.

And the GI50 (HOP-62 NSCLC)?
Its GI50 is 9.77 µM.

What about the TGI (HOP-62 NSCLC) of the same molecule?
The TGI was 41.3 µM.

What about the GI50 (LOX IMVI melanoma) of the same molecule?
Its GI50 is 6.79 µM.

What about the TGI (LOX IMVI melanoma) of the same molecule?
The TGI was 28 µM.

And the GI50 (T-47D breast)?
The GI50 was 35.3 µM.

What about the TGI (T-47D breast) of the same molecule?
The TGI was > 100 µM.

What about the GI50 (UACC-62 melanoma) of the same molecule?
Its GI50 is 10.4 µM.

What about the TGI (UACC-62 melanoma) of the same molecule?
Its TGI is 28.6 µM.

What about the GI50 (CCRF-CEM leukemia) of the same molecule?
The GI50 was 3.89 µM.

What about the TGI (CCRF-CEM leukemia) of the same molecule?
The TGI was 38.6 µM.

And the GI50 (ACHN renal)?
Its GI50 is 6.13 µM.

What about the TGI (ACHN renal) of the same molecule?
Its TGI is 42.9 µM.

What about the GI50 (SF-539 CNS) of the same molecule?
The GI50 was 14.9 µM.

What about the TGI (SF-539 CNS) of the same molecule?
Its TGI is 53.8 µM.

What about the GI50 (NCI-H226 lung) of the same molecule?
The GI50 was 23.3 µM.

What about the TGI (NCI-H226 lung) of the same molecule?
Its TGI is 65.1 µM.

What about the GI50 (SN12C renal) of the same molecule?
The GI50 was 16.6 µM.

And the TGI (SN12C renal)?
The TGI was 79.6 µM.

And the GI50 (CAKI-1 renal)?
The GI50 was 4.53 µM.

What about the TGI (CAKI-1 renal) of the same molecule?
The TGI was 34.9 µM.

What about the GI50 (HCC-2998 colon) of the same molecule?
The GI50 was 5.5 µM.

What about the TGI (HCC-2998 colon) of the same molecule?
The TGI was 19.7 µM.

What about the GI50 (NCI-H460 lung) of the same molecule?
Its GI50 is > 100 µM.

What about the TGI (NCI-H460 lung) of the same molecule?
Its TGI is > 100 µM.

What about the GI50 (SW-620 colon) of the same molecule?
Its GI50 is 5.51 µM.

What about the TGI (SW-620 colon) of the same molecule?
The TGI was > 100 µM.

And the GI50 (IGROV1 ovarian)?
Its GI50 is 1.77 µM.

What about the TGI (IGROV1 ovarian) of the same molecule?
Its TGI is > 100 µM.

And the GI50 (NCI-H522 lung)?
Its GI50 is 11.3 µM.

What about the TGI (NCI-H522 lung) of the same molecule?
The TGI was > 100 µM.

What about the GI50 (MCF7 breast) of the same molecule?
Its GI50 is > 100 µM.

And the TGI (MCF7 breast)?
Its TGI is > 100 µM.

And the GI50 (MOLT-4 leukemia)?
The GI50 was 0.674 µM.

What about the TGI (MOLT-4 leukemia) of the same molecule?
The TGI was 8.41 µM.

What about the GI50 (EKVX NSCLC) of the same molecule?
The GI50 was 24.2 µM.

What about the TGI (EKVX NSCLC) of the same molecule?
The TGI was > 100 µM.

And the GI50 (HT29 colon)?
Its GI50 is 34.7 µM.

And the TGI (HT29 colon)?
Its TGI is > 100 µM.

And the GI50 (HCT-116 colon)?
Its GI50 is 4.31 µM.

And the TGI (HCT-116 colon)?
Its TGI is 48.2 µM.

What about the GI50 (NCI/ADR-RES ovarian) of the same molecule?
Its GI50 is 2.23 µM.

What about the TGI (NCI/ADR-RES ovarian) of the same molecule?
Its TGI is 6.75 µM.

And the GI50 (HS 578T breast)?
The GI50 was 53.3 µM.

And the TGI (HS 578T breast)?
Its TGI is > 100 µM.

What about the GI50 (MDA-MB-435) of the same molecule?
The GI50 was 18 µM.

What about the TGI (MDA-MB-435) of the same molecule?
Its TGI is > 100 µM.

And the GI50 (OVCAR-8 ovarian)?
The GI50 was 7.06 µM.

And the TGI (OVCAR-8 ovarian)?
The TGI was > 100 µM.

And the GI50 (OVCAR-5 ovarian)?
The GI50 was 14 µM.

What about the TGI (OVCAR-5 ovarian) of the same molecule?
Its TGI is 73.5 µM.

And the GI50 (SF-295 CNS)?
The GI50 was 14 µM.

And the TGI (SF-295 CNS)?
Its TGI is 88.3 µM.

And the GI50 (A549 NSCLC)?
The GI50 was 18.8 µM.

What about the TGI (A549 NSCLC) of the same molecule?
Its TGI is > 100 µM.

What about the GI50 (M14 melanoma) of the same molecule?
The GI50 was 14.3 µM.

And the TGI (M14 melanoma)?
The TGI was 30.4 µM.

What about the GI50 (RXF 393 renal) of the same molecule?
Its GI50 is 63.9 µM.

And the TGI (RXF 393 renal)?
The TGI was > 100 µM.

What about the GI50 (SK-MEL-2 melanoma) of the same molecule?
The GI50 was 89 µM.

And the TGI (SK-MEL-2 melanoma)?
The TGI was > 100 µM.

What about the GI50 (UO-31 renal) of the same molecule?
The GI50 was 24 µM.

And the TGI (UO-31 renal)?
Its TGI is > 100 µM.

And the GI50 (HCT-15 colon)?
The GI50 was 5.6 µM.

What about the TGI (HCT-15 colon) of the same molecule?
The TGI was > 100 µM.

And the GI50 (HOP-92 NSCLC)?
Its GI50 is 22.2 µM.

And the TGI (HOP-92 NSCLC)?
The TGI was > 100 µM.

What about the GI50 (COLO 205 colon) of the same molecule?
The GI50 was 23.9 µM.

What about the TGI (COLO 205 colon) of the same molecule?
Its TGI is > 100 µM.

And the GI50 (TK-10 renal)?
The GI50 was 4.33 µM.

And the TGI (TK-10 renal)?
The TGI was 17 µM.

And the GI50 (K-562 leukemia)?
The GI50 was 3.02 µM.

What about the TGI (K-562 leukemia) of the same molecule?
The TGI was 13.9 µM.

And the GI50 (NCI-H23 lung)?
The GI50 was 4.32 µM.

What about the TGI (NCI-H23 lung) of the same molecule?
The TGI was 26.2 µM.

And the GI50 (OVCAR-4 ovarian)?
Its GI50 is 50.2 µM.

And the TGI (OVCAR-4 ovarian)?
The TGI was > 100 µM.

And the GI50 (PC-3 prostate)?
The GI50 was 9.46 µM.

And the TGI (PC-3 prostate)?
The TGI was > 100 µM.

What about the GI50 (SNB-75 CNS) of the same molecule?
Its GI50 is > 100 µM.

And the TGI (SNB-75 CNS)?
Its TGI is > 100 µM.

What about the GI50 (SF-268 CNS) of the same molecule?
The GI50 was > 100 µM.

And the TGI (SF-268 CNS)?
Its TGI is > 100 µM.

And the GI50 (786-0 renal)?
The GI50 was 15 µM.

And the TGI (786-0 renal)?
Its TGI is > 100 µM.
